Laboratory results from US12551532B2, “Long-acting amylin receptor agonists and uses thereof” (Eli Lilly and Company, priority 2021, dated 2026).
Starred links: 1 amine or outer side, 2 acyl side, 3 side chain; linkers in the order of their positions; H or OH if unused. Positions of bridges follow the written chain, without caps; N, C: chain ends. Non-standard residues stand in square brackets, D forms with d. Residues, ends and D or L forms follow the SMILES beside them. Groups on a side chain read outwards from the residue. *: point of attachment. C20 diacid = O=C(O)CCCCCCCCCCCCCCCCCCC(=O)*; γGlu = O=C(O)[C@H](CCC(=O)[*:2])N[*:1]; αMeF = C[C@](N)(Cc1ccccc1)C(=O)O; NMeD = CN[C@@H](CC(=O)O)C(=O)O; NMeN = CN[C@@H](CC(N)=O)C(=O)O; αMeL = CC(C)C[C@](C)(N)C(=O)O; Orn = NCCC[C@H](N)C(=O)O; AEEA = NCCOCCOCC(=O)O; CH2 = C([*:1])[*:2]

Tests used:
human CT receptors = molecular target: T1, human CT receptors (Homo sapiens, UniProt P30988); test: hCTR cAMP functional activity (HTRF); type: cell-based; settings: ±SE; UMUC3 cells overexpressing hCTR; relative EC50
T1 construct: expressed in transfected cells
T1 sequence (P30988 25-474): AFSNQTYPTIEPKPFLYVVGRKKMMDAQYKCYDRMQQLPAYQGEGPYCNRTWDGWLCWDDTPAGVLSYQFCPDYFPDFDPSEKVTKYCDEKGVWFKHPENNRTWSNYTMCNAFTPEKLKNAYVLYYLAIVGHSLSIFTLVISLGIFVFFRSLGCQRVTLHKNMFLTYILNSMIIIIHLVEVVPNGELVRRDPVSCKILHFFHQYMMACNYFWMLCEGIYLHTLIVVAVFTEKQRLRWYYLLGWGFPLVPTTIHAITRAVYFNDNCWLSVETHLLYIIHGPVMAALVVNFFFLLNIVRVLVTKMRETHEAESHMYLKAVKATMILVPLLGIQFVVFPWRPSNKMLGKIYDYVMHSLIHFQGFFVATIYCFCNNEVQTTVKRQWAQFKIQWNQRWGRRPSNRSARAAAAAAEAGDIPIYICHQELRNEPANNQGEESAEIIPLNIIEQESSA
Method: (§1) The AMY1 and CT receptors are GPCRs that are functionally coupled to Gas proteins. […] In vitro activity of peptides is measured by the amount of cAMP formed in human AMY1R and CTR overexpressed cells.
Human CT receptors are stably expressed in human urinary bladder cells (UM-UC-3, or UMUC3) under control of a pcDNA expression vector. […] After 20 days under selection, the mRNA levels from different clones are measured to confirm the expression of hCTR. To determine the function of over-expressed hCTR cells, the intracellular cAMP levels in response to salmon calcitonin are measured and compared to the expression of hCTR mRNA in each clone.
(§2) hAMY1R cells are cultured in MEM 1× (Corning) supplemented with 10% FBS, 1% antibiotic/antimycotic solution, 1 mM sodium pyruvate, 1×MEM NEAA, 1× GlutaMAX-I, 200 μg/mL hygromycin B, and 0.4 μg/mL puromycin. The hCTR cells are cultured in the same medium lacking the puromycin. Cultured cells are grown to 70% confluency and then incubated overnight with fresh medium.
(§3) Peptides diluted in DMSO are added (200 nL/well) in a 1:3 dilution series using ECHO acoustic liquid handler (Beckman). Cultured cells are detached with TrypLE Express (Gibco), resuspended in assay buffer, and 10 μL containing 1200 cells/well (hCTR) or 1500 cells/well (hAMY1R) are dispensed into each well. The plates are incubated at room temperature for 1 hour.
(§4) The amount of intracellular cAMP is quantitated using HTRF technology (Homogeneous Time Resolved Fluorescence; Cisbio) as per vendor instructions. Briefly, 10 μL cAMP-d2 conjugate and 10 μL anti-cAMP-cryptate conjugate in lysis buffer are incubated with the treated cells at room temperature for 60 min. […] The raw data are converted to cAMP amount (pmol/well) using a cAMP standard curve generated for each experiment.

hAMY1R = molecular target: T2, hAMY1R (Homo sapiens, UniProt O60894+P30988); test: hAMY1R cAMP functional activity (HTRF); type: cell-based; settings: ±SE; UMUC3 cells overexpressing hAMY1R; relative EC50
T2 construct: expressed in transfected cells
T2 sequence (O60894 27-148 partner, one chain of several): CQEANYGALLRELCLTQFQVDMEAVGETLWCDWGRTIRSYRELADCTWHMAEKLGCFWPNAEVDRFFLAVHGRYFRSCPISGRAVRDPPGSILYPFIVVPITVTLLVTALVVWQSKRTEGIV
Method: as §1
Human AMY1R stable cell lines are generated by further transfecting human RAMP1-pCMVpuroPB (T14213) into UMUC3 hCTR clone cells. After selection, the mRNA levels human RAMP1 from different clones are measured to confirm the expression of human AMY1R.
as §2, §3, §4

EC50 (human CT receptors) [nM]	EC50 (hAMY1R) [nM]	Compound
18.9 ± 3.83	0.132 ± 0.02	CC(C)C[C@H](NC(=O)[C@H](CCCCN)NC(=O)CNC(=O)[C@@H](NC(=O)[C@H](C)NC(=O)[C@@H]1CSCSC[C@H](NC(=O)CC[C@H](N)C(=O)O)C(=O)N[C@@H](CC(N)=O)C(=O)N[C@@H]([C@@H](C)O)C(=O)N[C@@H](C)C(=O)N[C@@H]([C@@H](C)O)C(=O)N1)[C@@H](C)O)C(=O)N[C@@H](C)C(=O)N[C@@H](CCC(=O)O)C(=O)N[C@@H](Cc1ccccc1)C(=O)N[C@@H](CC(C)C)C(=O)N[C@H](C(=O)N[C@@H](CCCNC(=N)N)C(=O)N[C@@H](CO)C(=O)N[C@@H](CO)C(=O)N[C@@H](CC(N)=O)C(=O)N[C@@H](CC(N)=O)C(=O)N[C@@H](Cc1ccccc1)C(=O)NCC(=O)N1CCC[C@H]1C(=O)N[C@@H](CCCCNC(=O)COCCOCCNC(=O)COCCOCCNC(=O)CC[C@H](NC(=O)CCCCCCCCCCCCCCCCCCC(=O)O)C(=O)O)C(=O)N[C@@H](CC(C)C)C(=O)N1CCC[C@H]1C(=O)N1CCC[C@H]1C(=O)N[C@H](C(=O)N[C@@H](CCC(=O)O)C(=O)N[C@H](C(=O)NCC(=O)N[C@@H](CO)C(=O)N[C@@H](CC(N)=O)C(=O)N[C@H](C(=O)N[C@@H](Cc1ccc(O)cc1)C(N)=O)[C@@H](C)O)C(C)C)[C@@H](C)O)C(C)C [Compound IX] (γGlu-CNTATCATGKLAEFLVRSSNNFGPK([AEEA-AEEA-γGlu-C20 diacid])LPPTEVGSNTY-NH2; linker 1-6 via CH2)
9.49 ± 1.54	0.078 ± 0.014	CC(C)C[C@H](NC(=O)[C@H](CCCN)NC(=O)CNC(=O)[C@@H](NC(=O)[C@H](C)NC(=O)[C@@H]1CSCSC[C@H](NC(=O)CC[C@H](N)C(=O)O)C(=O)NCC(=O)N[C@@H]([C@@H](C)O)C(=O)N[C@@H](C)C(=O)N[C@@H]([C@@H](C)O)C(=O)N1)[C@@H](C)O)C(=O)N[C@@H](C)C(=O)N[C@@H](CCC(=O)O)C(=O)N[C@@H](Cc1ccccc1)C(=O)N[C@@H](CC(C)C)C(=O)N[C@H](C(=O)N[C@@H](CCCNC(=N)N)C(=O)N[C@@H](CO)C(=O)N[C@@H](CO)C(=O)N[C@@H](CC(N)=O)C(=O)N[C@@H](CC(N)=O)C(=O)N[C@@H](Cc1ccccc1)C(=O)NCC(=O)N1CCC[C@H]1C(=O)N[C@@H](CCCCNC(=O)CC[C@H](NC(=O)CC[C@H](NC(=O)CCCCCCCCCCCCCCCCCCC(=O)O)C(=O)O)C(=O)O)C(=O)N[C@@H](CC(C)C)C(=O)N1CCC[C@H]1C(=O)N1CCC[C@H]1C(=O)N[C@H](C(=O)N[C@@H](CCC(=O)O)C(=O)N[C@H](C(=O)NCC(=O)N[C@@H](CO)C(=O)N[C@@H](CC(N)=O)C(=O)N[C@H](C(=O)N[C@@H](Cc1ccc(O)cc1)C(N)=O)[C@@H](C)O)C(C)C)[C@@H](C)O)C(C)C [Compound XIII] (γGlu-CGTATCATG[Orn]LAEFLVRSSNNFGPK([γGlu-γGlu-C20 diacid])LPPTEVGSNTY-NH2; linker 1-6 via CH2)
25.9 ± 7.62	0.113 ± 0.034	CC(C)C[C@H](NC(=O)[C@H](CCCN)NC(=O)[C@H](CCC(N)=O)NC(=O)[C@@H](NC(=O)[C@H](C)NC(=O)[C@@H]1CSCSC[C@H](NC(=O)CC[C@H](N)C(=O)O)C(=O)N[C@@H](CC(N)=O)C(=O)N[C@@H]([C@@H](C)O)C(=O)N[C@@H](C)C(=O)N[C@@H]([C@@H](C)O)C(=O)N1)[C@@H](C)O)C(=O)N[C@@H](C)C(=O)N[C@@H](CCC(=O)O)C(=O)N[C@@H](Cc1ccccc1)C(=O)N[C@@H](CC(C)C)C(=O)N[C@H](C(=O)N[C@@H](CCCNC(=N)N)C(=O)N[C@@H](CO)C(=O)N[C@@H](CO)C(=O)N[C@@H](CC(N)=O)C(=O)N[C@@H](CC(N)=O)C(=O)N[C@@H](Cc1ccccc1)C(=O)NCC(=O)N1CCC[C@H]1C(=O)N[C@@H](CCCCNC(=O)COCCOCCNC(=O)COCCOCCNC(=O)CC[C@H](NC(=O)CCCCCCCCCCCCCCCCCCC(=O)O)C(=O)O)C(=O)N[C@@H](CC(C)C)C(=O)N1CCC[C@H]1C(=O)N1CCC[C@H]1C(=O)N[C@H](C(=O)N[C@@H](CCC(=O)O)C(=O)N[C@H](C(=O)NCC(=O)N[C@@H](CO)C(=O)N[C@@H](CC(N)=O)C(=O)N[C@H](C(=O)N[C@@H](Cc1ccc(O)cc1)C(N)=O)[C@@H](C)O)C(C)C)[C@@H](C)O)C(C)C [Compound XII] (γGlu-CNTATCATQ[Orn]LAEFLVRSSNNFGPK([AEEA-AEEA-γGlu-C20 diacid])LPPTEVGSNTY-NH2; linker 1-6 via CH2)
11.9 ± 1.53	0.173 ± 0.034	CC[C@H](C)[C@H](NC(=O)[C@@H]1CCCN1C(=O)CNC(=O)[C@H](Cc1ccccc1)NC(=O)[C@H](CC(N)=O)NC(=O)[C@H](Cc1c[nH]cn1)NC(=O)[C@H](CO)NC(=O)[C@H](CO)NC(=O)[C@H](CCCNC(=N)N)NC(=O)[C@@H](NC(=O)[C@H](CC(C)C)NC(=O)[C@H](Cc1ccccc1)NC(=O)[C@H](CCC(=O)O)NC(=O)[C@H](C)NC(=O)[C@](C)(CC(C)C)NC(=O)[C@H](CCCN)NC(=O)CNC(=O)[C@@H](NC(=O)[C@H](C)NC(=O)[C@@H]1CSCSC[C@H](NC(=O)[C@@H](N)CCCCN)C(=O)N[C@@H](CCC(=O)O)C(=O)N[C@@H]([C@@H](C)O)C(=O)N[C@@H](C)C(=O)N[C@@H]([C@@H](C)O)C(=O)N1)[C@@H](C)O)C(C)C)C(=O)N[C@@H](CC(C)C)C(=O)N1CCC[C@H]1C(=O)N1CCC[C@H]1C(=O)N[C@H](C(=O)N[C@@H](CCC(=O)O)C(=O)N[C@H](C(=O)NCC(=O)N[C@@H](CO)C(=O)N[C@@H](CC(N)=O)C(=O)N[C@H](C(=O)N[C@@H](Cc1ccc(O)cc1)C(N)=O)[C@@H](C)O)C(C)C)[C@@H](C)O [Compound VII] (H-KCETATCATG[Orn][αMeL]AEFLVRSSHNFGPILPPTEVGSNTY-NH2; linker 2-7 via CH2)
18 ± 1.08	0.133 ± 0.012	CC(C)C[C@H](NC(=O)[C@H](CCCN)NC(=O)CNC(=O)[C@@H](NC(=O)[C@H](C)NC(=O)[C@@H]1CSCSC[C@H](NC(=O)CC[C@H](N)C(=O)O)C(=O)N[C@@H](CC(N)=O)C(=O)N[C@@H]([C@@H](C)O)C(=O)N[C@@H](C)C(=O)N[C@@H]([C@@H](C)O)C(=O)N1)[C@@H](C)O)C(=O)N[C@@H](C)C(=O)N[C@@H](CCC(=O)O)C(=O)N[C@@](C)(Cc1ccccc1)C(=O)N[C@@H](CC(C)C)C(=O)N[C@H](C(=O)N[C@@H](CCCNC(=N)N)C(=O)N[C@@H](CO)C(=O)N[C@@H](CO)C(=O)N[C@@H](CC(N)=O)C(=O)N(C)[C@@H](CC(N)=O)C(=O)N[C@@H](Cc1ccccc1)C(=O)NCC(=O)N1CCC[C@H]1C(=O)N[C@@H](CCCCN)C(=O)N[C@@H](CC(C)C)C(=O)N1CCC[C@H]1C(=O)N1CCC[C@H]1C(=O)N[C@H](C(=O)N[C@@H](CCC(=O)O)C(=O)N[C@H](C(=O)NCC(=O)N[C@@H](CO)C(=O)N[C@@H](CC(N)=O)C(=O)N[C@H](C(=O)N[C@@H](Cc1ccc(O)cc1)C(N)=O)[C@@H](C)O)C(C)C)[C@@H](C)O)C(C)C [Compound I, γE-CNTATCATG-Orn-LAE-αMeF-LVRSSN-NMeN-FGPKLPPTEVGSNTY-NH2] (γGlu-CNTATCATG[Orn]LAE[αMeF]LVRSSN[NMeN]FGPKLPPTEVGSNTY-NH2; linker 1-6 via CH2)
16.3 ± 3.03	0.156 ± 0.027	CC(C)C[C@H](NC(=O)[C@H](CCCN)NC(=O)CNC(=O)[C@@H](NC(=O)[C@H](C)NC(=O)[C@@H]1CSCSC[C@H](NC(=O)CC[C@H](N)C(=O)O)C(=O)N[C@@H](CC(N)=O)C(=O)N[C@@H]([C@@H](C)O)C(=O)N[C@@H](C)C(=O)N[C@@H]([C@@H](C)O)C(=O)N1)[C@@H](C)O)C(=O)N[C@@H](C)C(=O)N[C@@H](CCC(=O)O)C(=O)N[C@@](C)(Cc1ccccc1)C(=O)N[C@@H](CC(C)C)C(=O)N[C@H](C(=O)N[C@@H](CCCNC(=N)N)C(=O)N[C@@H](CO)C(=O)N[C@@H](CO)C(=O)N[C@@H](CC(N)=O)C(=O)N(C)[C@@H](CC(=O)O)C(=O)N[C@@H](Cc1ccccc1)C(=O)NCC(=O)N1CCC[C@H]1C(=O)N[C@@H](CCCCN)C(=O)N[C@@H](CC(C)C)C(=O)N1CCC[C@H]1C(=O)N1CCC[C@H]1C(=O)N[C@H](C(=O)N[C@@H](CCC(=O)O)C(=O)N[C@H](C(=O)NCC(=O)N[C@@H](CO)C(=O)N[C@@H](CC(N)=O)C(=O)N[C@H](C(=O)N[C@@H](Cc1ccc(O)cc1)C(N)=O)[C@@H](C)O)C(C)C)[C@@H](C)O)C(C)C [Compound III, γE-CNTATCATG-Orn-LAE-αMeF-LVRSSN-NMeD-FGPKLPPTEVGSNTY-NH2] (γGlu-CNTATCATG[Orn]LAE[αMeF]LVRSSN[NMeD]FGPKLPPTEVGSNTY-NH2; linker 1-6 via CH2)
